The values below come from patent US20090048301A1 (IMCLONE SYSTEMS INCORPORATED, priority 2003, published 2009).

For one data set, the system named is tumor vasculature. To be noted: Cancer Research 59, 1626 (1999); cited from earlier work.
Another data set relates to bovine tubulin. Put plainly: In vitro tubulin polymerization assay (turbidity at 340 nm). To be noted: 10 μM compound, 30 minute data point, vs 1% DMSO control. It is filed as biochemical. The method in brief:
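Bovine tubulin (97%, <3% MAPs) at 3 mg/ml final in G-PEM pH 7 with 1 mM GTP and 5% glycerol, added cold to compound wells at 37° C (1% DMSO final). A340 read each minute for 30 min; percent inhibition from 30-min point versus DMSO control.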

The test system of data set [1] is A431 human cancer cell line. Put plainly: Sulphorhodamine B (SRB) growth inhibition assay. In kind it is cell-based. To be noted: A-431, A431 cells, 48 hours, read-out: SRB Assay: μM required to inhibit tumor cell growth by 50% (GI50). A digest of the protocol:
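A431 cells were seeded at 10,000 cells/well and preincubated 24 h, then exposed for 48 h at 37 °C, 5% CO2 to five log doses from 100 μM to 0.01 μM (final). After TCA fixation, SRB-stained protein was read at 515 nm. Percent growth was set against time-zero and DMSO control OD, and GI50 was taken at the 50% intercept.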

The test system of data set [2] is A431, human epidermoid carcinoma cells. Put plainly: Cell cycle analysis (FACS), mitotic arrest in G2/M. It is filed as cell-based. To be noted: Homo sapiens, A-431, 24 h, read-out: FACS Assay: concentration required to achieve inhibition in FACS assay. A digest of the protocol: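 A431 cells, 500,000/well at treatment, exposed to compounds at 0.01–1 μM final (0.1% DMSO) for 24 h. Ethanol-fixed cells RNase-treated (1 μg/ml, 37° C., 15 min), stained with propidium iodide (50 μg/ml, 30 min, RT). DNA ploidy by flow cytometry; mitotic arrest scored as G2/M accumulation.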
In general terms: In flow cytometry, cells or beads pass a laser one at a time.

The subject of a further data set is xenograft models. The note with it: Cancer Research 62, 3113, 2002; cited from earlier work.
The next data set relates to MDR cells. The note with it: Cancer Research 61, 392, 2001; cited from earlier work.
For data set [3] the following is noted: Cancer Research 61, 392, 2001; cited from earlier work.

For `COc1ccc(/C=C\c2cc(OC)c(OC)c(OC)c2)cc1OP(=O)(O)O` [Combretastatin A-4 phosphate], the “effect on tumor vasculature and necrosis in mouse tumor models” value in the data set on tumor vasculature was “change endothelial cell morphology, shut down tumor vasculature, and induce tumor necrosis”.

A word on the GI50: it is the concentration giving 50% growth inhibition. Take `COc1cc(Nc2ncccc2-c2nnc(Nc3ccc4c(c3)OCO4)o2)cc(OC)c1` [Compound 177, {3-[5-(Benzo[1,3]dioxol-5-ylamino)-[1,3,4]oxadiazol-2-yl]-pyridin-2-yl}-(3,5-dimethoxy-phenyl)-amine]: the “Tubulin Assay: percent inhibition at 10 μM based on 30 minute data” value (“Tubulin Assay: percent inhibition” for short) in the data set on bovine tubulin worked out at 45%. Further, the GI50 in data set [1] was found to be 0.04 µM. In data set [2], the minimal effective concentration turned out to be 0.01 µM.

For the molecule `c1cnc(NCc2ccc3c(c2)OCO3)c(-c2nnc(Nc3ccc4c(c3)OCO4)o2)c1` [Compound 181, {3-[5-(Benzo[1,3]dioxol-5-ylamino)-[1,3,4]oxadiazol-2-yl]-pyridin-2-yl}-benzo[1,3]dioxol-5-ylmethyl-amine], the “Tubulin Assay: percent inhibition” value in the data set with bovine tubulin was 76%. Moreover, the 50% growth inhibitory concentration (GI50) in data set [1] was found to be 0.3 µM. Besides, in data set [2], the minimal effective concentration came to 1 µM.

`COc1cc(CNc2ncccc2-c2nnc(Nc3ccc4c(c3)OCO4)o2)cc(OC)c1` [Compound 182, {3-[5-(Benzo[1,3]dioxol-5-ylamino)-[1,3,4]oxadiazol-2-yl]-pyridin-2-yl}-(3,5-dimethoxy-benzyl)-amine]: the “Tubulin Assay: percent inhibition” value with bovine tubulin worked out at 84%. Besides, in data set [1], the GI50 is 0.2 µM. Further, in data set [2], the minimal effective concentration was 1 µM.

As for `COc1cc(CNc2ncccc2-c2nnc(Nc3ccc(OC)c(OC)c3)o2)cc(OC)c1` [Compound 183, (3,5-Dimethoxy-benzyl)-{3-[5-(3,4-dimethoxy-phenylamino)-[1,3,4]oxadiazol-2-yl]-pyridin-2-yl}-amine], in the data set on bovine tubulin, the “Tubulin Assay: percent inhibition” value is recorded as 50%. In addition, the 50% growth inhibitory concentration (GI50) in data set [1] worked out at 6 µM. The minimal effective concentration in data set [2] is 0.1 µM.

`c1cncc(CNc2ncccc2-c2nnc(Nc3ccc4c(c3)OCO4)o2)c1` [Compound 189, {3-[5-(Benzo[1,3]dioxol-5-ylamino)-[1,3,4]oxadiazol-2-yl]-pyridin-2-yl}-pyridin-3-ylmethyl-amine]: the “Tubulin Assay: percent inhibition” value in the data set on bovine tubulin is reported as 89%. Further, the GI50 in data set [1] turned out to be 0.6 µM. Moreover, in data set [2], the minimal effective concentration is 0.1 µM.

As for `O=C1CCCN1CCCNc1ncccc1-c1nnc(Nc2ccc3c(c2)OCCO3)o1` [Compound 192, 1-(3-{3-[5-(2,3-Dihydro-benzo[1,4]dioxin-6-ylamino)-[1,3,4]oxadiazol-2-yl]-pyridin-2-ylamino}-propyl)-pyrrolidin-2-one], in the data set on bovine tubulin, the “Tubulin Assay: percent inhibition” value was determined as 85%. In data set [1], the GI50 stood at 0.01 µM. For the same molecule, the minimal effective concentration in data set [2] was found to be 0.1 µM.

On to `COc1cc(Nc2ncccc2-c2nnc(Nc3ccc4c(c3)OCCO4)o2)cc(OC)c1` [Compound 193, {3-[5-(2,3-Dihydro-benzo[1,4]dioxin-6-ylamino)-[1,3,4]oxadiazol-2-yl]-pyridin-2-yl}-(3,5-dimethoxy-phenyl)-amine], for which the “Tubulin Assay: percent inhibition” value with bovine tubulin amounted to 69%. The GI50 in data set [1] is 0.01 µM. Further, the minimal effective concentration in data set [2] was 0.01 µM.

`c1ccc(-c2nnc(Nc3ccc4c(c3)OCCO4)o2)c(NCc2ccncc2)c1` [Compound 215, (2,3-Dihydro-benzo[1,4]dioxin-6-yl)-(5-{2-[(pyridin-4-ylmethyl)-amino]-phenyl}-[1,3,4]oxadiazol-2-yl)-amine]: the “Tubulin Assay: percent inhibition” value with bovine tubulin worked out at 100%. In addition, the concentration for 50% growth inhibition (GI50) in data set [1] turned out to be 10 µM. Further, the minimal effective concentration in data set [2] was determined as 0.01 µM.

In the case of `c1ccc(-c2nnc(Nc3ccc4c(c3)OCCO4)o2)c(NCc2cn[nH]c2)c1` [Compound 223, (2,3-Dihydro-benzo[1,4]dioxin-6-yl)-(5-{2-[(1H-pyrazol-4-ylmethyl)-amino]-phenyl}-[1,3,4]oxadiazol-2-yl)-amine], the “Tubulin Assay: percent inhibition” value in the data set with bovine tubulin was 84%. Moreover, the 50% growth inhibitory concentration (GI50) in data set [1] was found to be 1.5 µM. For the same molecule, in data set [2], the minimal effective concentration was determined as 0.1 µM.

For `COc1cccc(Nc2nnc(-c3ccccc3NCc3ccncc3)o2)c1` [Compound 228, (3-Methoxy-phenyl)-(5-{2-[(pyridin-4-ylmethyl)-amino]-phenyl}-[1,3,4]oxadiazol-2-yl)-amine], the “Tubulin Assay: percent inhibition” value in the data set with bovine tubulin worked out at 57%. For the same molecule, the 50% growth inhibitory concentration (GI50) in data set [1] was 2 µM. The minimal effective concentration in data set [2] was determined as 10 µM.

As for `COc1ccc2[nH]c(C(=O)c3ccccc3)cc2c1` [Compound D64131], in the data set on xenograft models, the “efficacy in xenograft models” value is “efficacious in xenograft models”, the oral activity entry is reported as “orally active” and the toxicity result is “no signs of toxicity”.

In the case of `O=C(Nc1ccncc1)C(=O)c1cn(Cc2ccc(Cl)cc2)c2ccccc12` [Compound D-24851], the “efficacy toward MDR cells” value in the data set on MDR cells was “shows efficacy toward MDR cells”. In data set [3], the “antitumor activity in vivo” value is given as “exert antitumor activity in vivo” and the neurotoxicity result is recorded as “lacks neurotoxicity”.
